# Data: patent publication US10464947B2 (Incyte Corporation, priority 2013, dated 2019)
# Tested on: KMS.12.BM cells
# Experiment: KMS.12.BM Cell Viability Assay (Example B1)
# Type: cell-based, human
# Conditions: 3 days, Cell Titer-GLO, read-out: KMS cellular IC50
# Protocol: KMS.12.BM cell line (human myeloma) was purchased from JCRB (Osaka, Japan) and maintained in RPMI with 10% FBS culture medium. To measure the cytotoxic activity of the compounds through ATP quantitation, the KMS.12.BM cells are plated in the RPMI culture medium at 5000 cells/well/per 100 μL into a 96-well polystyrene clear black tissue culture plate (Greiner-bio-one through VWR, NJ), in the presence or absence of a concentration range of test compounds. After 3 days, […] Cell Titer-GLO Luminescent (Promega, Madison, Wis.) cell culture agent is added to each well for 10 min. at room temperature to stabilize the luminescent signal. This determines the number of viable cells in culture based on quantitation of the ATP present, which signals the presence of metabolically active cells.
row,SMILES,IC50 [nM]
1,"Cc1noc(C)c1-c1ccc2nc(NC(C)CO)n3c2c1OCC3c1ccccc1 (single isomer, unassigned) [Example 31, 2-{[7-(3,5-Dimethylisoxazol-4-yl)-4-phenyl-4,5-dihydroimidazo[1,5,4-de][1,4]benzoxazin-2-yl]amino}propan-1-ol]",< 1000
2,"Cc1noc(C)c1-c1ccc2[nH]c(=O)n3c2c1OC(CO)C3c1ccccn1 (single isomer, unassigned) [Example 62C, 7-(3,5-Dimethylisoxazol-4-yl)-5-(hydroxymethyl)-4-pyridin-2-yl-4,5-dihydroimidazo[1,5,4-de][1,4]benzoxazin-2(1H)-one]",< 1000
3,"Cc1noc(C)c1-c1cc(C(C)O)c2[nH]c(=O)n3c2c1OC[C@@H]3c1ccccn1 (single isomer, unassigned) [Example 144B]",< 1000

# Same assay, conditions: Homo sapiens, 72 h, 3 days, Cell Titer-GLO, read-out: KMS cellular IC50
row,SMILES,IC50 [nM]
1,"CCOC(=O)N1CCN(c2nc3ccc(-c4c(C)noc4C)c4c3n2[C@@H](c2ccccn2)CO4)CC1 [Example 167, ethyl 4-[(4S)-7-(3,5-dimethylisoxazol-4-yl)-4-pyridin-2-yl-4,5-dihydroimidazo[1,5,4-de][1,4]benzoxazin-2-yl]piperazine-1-carboxylate]",< 1000
2,"C=Cc1nc2ccc(-c3c(C)noc3C)c3c2n1[C@@H](c1ccccn1)CO3 [Example 88, (4S)-7-(3,5-Dimethylisoxazol-4-yl)-4-pyridin-2-yl-2-vinyl-4,5-dihydroimidazo[1,5,4-de][1,4]benzoxazine]",< 1000
3,"CC(=O)N1CCCN(c2nc3ccc(-c4c(C)noc4C)c4c3n2[C@@H](c2ccccn2)CO4)CC1 [Example 148, (4S)-2-(4-Acetyl-1,4-diazepan-1-yl)-7-(3,5-dimethylisoxazol-4-yl)-4-pyridin-2-yl-4,5-dihydroimidazo[1,5,4-de][1,4]benzoxazine]",< 1000
4,"Cc1noc(C)c1-c1cc(-c2cn[nH]c2)c2[nH]c(=O)n3c2c1OCC3c1ccccn1 (stereo not drawn) [Example 256, 7-(3,5-dimethylisoxazol-4-yl)-9-(1H-pyrazol-4-yl)-4-pyridin-2-yl-4,5-dihydroimidazo[1,5,4-de][1,4]benzoxazin-2(1H)-one]",< 1000
5,"COC(=O)c1ncccc1C1COc2c(-c3c(C)noc3C)ccc3[nH]c(=O)n1c23 (racemic) [Example 132, Methyl 3-[7-(3,5-dimethylisoxazol-4-yl)-2-oxo-1,2,4,5-tetrahydroimidazo[1,5,4-de][1,4]benzoxazin-4-yl]pyridine-2-carboxylate]",< 1000
6,"COc1cccc(C2COc3c(-c4c(C)noc4C)ccc4[nH]c(=O)n2c34)c1 (stereo not drawn) [Example 6, 7-(3,5-Dimethylisoxazol-4-yl)-4-(3-methoxyphenyl)-4,5-dihydroimidazo[1,5,4-de][1,4]benzoxazin-2(1H)-one]",< 1000
7,"Cc1noc(C)c1-c1ccc2nc(N3CCC[C@H](O)C3)n3c2c1OC[C@@H]3c1ccccn1 [Example 170B, (3S)-1-[(4S)-7-(3,5-dimethylisoxazol-4-yl)-4-pyridin-2-yl-4,5-dihydroimidazo[1,5,4-de][1,4]benzoxazin-2-yl]piperidin-3-ol]",< 1000
8,"Cc1noc(C)c1-c1ccc2ncn3c2c1OC[C@@H]3c1ccccn1 [Example 92, (4S)-7-(3,5-Dimethylisoxazol-4-yl)-4-pyridin-2-yl-4,5-dihydroimidazo[1,5,4-de][1,4]benzoxazine]",< 1000
9,"Cc1noc(C)c1-c1ccc2nc(N3CCCC3)n3c2c1OC[C@@H]3c1ccccn1 [Example 162, (4S)-7-(3,5-dimethylisoxazol-4-yl)-4-pyridin-2-yl-2-pyrrolidin-1-yl-4,5-dihydroimidazo[1,5,4-de][1,4]benzoxazine]",< 1000
10,"CCNC(=O)COc1ccccc1C1COc2c(-c3c(C)noc3C)ccc3[nH]c(=O)n1c23 (stereo not drawn) [Example 22, 2-{2-[7-(3,5-Dimethylisoxazol-4-yl)-2-oxo-1,2,4,5-tetrahydroimidazo[1,5,4-de][1,4]benzoxazin-4-yl]phenoxy}-N-ethylacetamide]",< 1000
11,"Cc1noc(C)c1-c1ccc2nc(C3CCN(S(C)(=O)=O)CC3)n3c2c1OC[C@@H]3c1ccccn1 [Example 112, (4S)-7-(3,5-dimethylisoxazol-4-yl)-2-[1-(methylsulfonyl)piperidin-4-yl]-4-pyridin-2-yl-4,5-dihydroimidazo[1,5,4-de][1,4]benzoxazine]",< 1000
12,"Cc1noc(C)c1-c1ccc2nc(N3CCN(Cc4ccccc4)CC3)n3c2c1OC[C@@H]3c1ccccn1 [Example 179, (4S)-2-(4-benzylpiperazin-1-yl)-7-(3,5-dimethylisoxazol-4-yl)-4-pyridin-2-yl-4,5-dihydroimidazo[1,5,4-de][1,4]benzoxazine]",< 1000
13,"Cc1noc(C)c1-c1ccc2nc(N3CCN(CCO)CC3)n3c2c1OC[C@@H]3c1ccccn1 [Example 177, 2-{4-[(4S)-7-(3,5-dimethylisoxazol-4-yl)-4-pyridin-2-yl-4,5-dihydroimidazo[1,5,4-de][1,4]benzoxazin-2-yl]piperazin-1-yl}ethanol]",< 1000
14,"CCC(=O)N[C@@H]1CCN(c2nc3ccc(-c4c(C)noc4C)c4c3n2[C@@H](c2ccccn2)CO4)C1 [Example 208, N-{(3R)-1-[(4S)-7-(3,5-dimethylisoxazol-4-yl)-4-pyridin-2-yl-4,5-dihydroimidazo[1,5,4-de][1,4]benzoxazin-2-yl]pyrrolidin-3-yl}propanamide]",< 1000
15,"Cc1noc(C)c1-c1cc(C(O)C(C)C)c2[nH]c(=O)n3c2c1OCC3c1ccccn1 (stereo not drawn) [Example 264, 7-(3,5-dimethylisoxazol-4-yl)-9-(1-hydroxy-2-methylpropyl)-4-pyridin-2-yl-4,5-dihydroimidazo[1,5,4-de][1,4]benzoxazin-2(1H)-one]",< 1000
16,"Cc1noc(C)c1-c1ccc2[nH]c(=O)n3c2c1OCC3C1CCCO1 (single isomer, unassigned) [Example 18A, 7-(3,5-Dimethylisoxazol-4-yl)-4-(tetrahydrofuran-2-yl)-4,5-dihydroimidazo[1,5,4-de][1,4]benzoxazin-2(1H)-one]",< 1000
17,"Cc1noc(C)c1-c1ccc2nc(N3CC[C@@H](N(C)C(=O)CC#N)C3)n3c2c1OC[C@@H]3c1ccccn1 [Example 152, 2-Cyano-N-{(3R)-1-[(4S)-7-(3,5-dimethylisoxazol-4-yl)-4-pyridin-2-yl-4,5-dihydroimidazo[1,5,4-de][1,4]benzoxazin-2-yl]pyrrolidin-3-yl}-N-methylacetamide]",< 1000
18,"Cc1noc(C)c1-c1ccc2nc(N3CC[C@@H](NC(=O)C4CCOCC4)C3)n3c2c1OC[C@@H]3c1ccccn1 [Example 213, N-{(3R)-1-[(4S)-7-(3,5-dimethylisoxazol-4-yl)-4-pyridin-2-yl-4,5-dihydroimidazo[1,5,4-de][1,4]benzoxazin-2-yl]pyrrolidin-3-yl}tetrahydro-2H-pyran-4-carboxamide]",< 1000
19,"Cc1noc(C)c1-c1ccc2nc(N(C)C)n3c2c1OCC3c1ccccn1 (stereo not drawn) [Example 187, 7-(3,5-dimethylisoxazol-4-yl)-N,N-dimethyl-4-pyridin-2-yl-4,5-dihydroimidazo[1,5,4-de][1,4]benzoxazin-2-amine]",< 1000
20,"Cn1nccc1-c1cc(Br)c2[nH]c(=O)n3c2c1OCC3c1ccccc1 (stereo not drawn) [Example 36, 9-Bromo-7-(1-methyl-1H-pyrazol-5-yl)-4-phenyl-4,5-dihydroimidazo[1,5,4-de][1,4]benzoxazin-2(1H)-one]",< 1000
21,"Cc1noc(C)c1-c1ccc2nc(N3CCN4CCC[C@@H]4C3)n3c2c1OC[C@@H]3c1ccccn1 [Example 193B, (4S)-7-(3,5-dimethylisoxazol-4-yl)-2-[(8aR)-hexahydropyrrolo[1,2-a]pyrazin-2(1H)-yl]-4-pyridin-2-yl-4,5-dihydroimidazo[1,5,4-de][1,4]benzoxazine]",< 1000
22,"Cc1noc(C)c1-c1ccc2nc(N3CCN(c4ccccc4)CC3)n3c2c1OC[C@@H]3c1ccccn1 [Example 178, (4S)-7-(3,5-dimethylisoxazol-4-yl)-2-(4-phenylpiperazin-1-yl)-4-pyridin-2-yl-4,5-dihydroimidazo[1,5,4-de][1,4]benzoxazine]",< 1000
23,"Cc1noc(C)c1-c1ccc2nc(N3CCOCC3)n3c2c1OC[C@@H]3c1ccccn1 [Example 161, (4S)-7-(3,5-dimethylisoxazol-4-yl)-2-morpholin-4-yl-4-pyridin-2-yl-4,5-dihydroimidazo[1,5,4-de][1,4]benzoxazine]",< 1000
24,"CC(=O)NCc1ncccc1C1COc2c(-c3c(C)noc3C)ccc3[nH]c(=O)n1c23 (stereo not drawn) [Example 131, N-({3-[7-(3,5-Dimethylisoxazol-4-yl)-2-oxo-1,2,4,5-tetrahydroimidazo[1,5,4-de][1,4]benzoxazin-4-yl]pyridin-2-yl}methyl)acetamide]",< 1000
25,"Cc1noc(C)c1-c1cc(C)c2[nH]c(=O)n3c2c1OCC3c1ccccc1 (stereo not drawn) [Example 46, 7-(3,5-Dimethylisoxazol-4-yl)-9-methyl-4-phenyl-4,5-dihydroimidazo[1,5,4-de][1,4]benzoxazin-2(1H)-one]",< 1000

# Same assay, conditions: Homo sapiens, KMS-12-BM, 72 h, 3 days, Cell Titer-GLO, read-out: KMS cellular IC50
row,SMILES,IC50 [nM]
1,"Cc1noc(C)c1-c1ccc2[nH]c(=O)n3c2c1OCC3C1CCCCN1 (single isomer, unassigned) [Example 63A, 7-(3,5-Dimethylisoxazol-4-yl)-4-piperidin-2-yl-4,5-dihydroimidazo[1,5,4-de][1,4]benzoxazin-2(1H)-one 2,2,2-trifluoroacetate]",1000 to 10000
2,"Cc1noc(C)c1-c1ccc2nc(NC(C)(C)CO)n3c2c1OCC3c1ccccc1 (stereo not drawn) [Example 33, 2-{[7-(3,5-Dimethylisoxazol-4-yl)-4-phenyl-4,5-dihydroimidazo[1,5,4-de][1,4]benzoxazin-2-yl]amino}-2-methylpropan-1-ol]",1000 to 10000
